Assay results reported in patent US8877717B2, “Anti-diabetic extract of rooibos” (Zadec ApS, priority 2007, dated 2014).

Legend:
diabetic rats = assay: Flavonoids administered to diabetic rats (blood sugar); assay type: in vivo
[1] = Bioassay of purified fractions for anti-diabetic activity
Text: The partially purified active extract may be dissolved in methanol, and may be further fractionated by column chromatography, employing silica gel as an adsorption medium and a chloroform/30% methanol mixture as an eluent. A plurality of different fractions may be obtained, and each may be evaluated, by suitable bioassaying procedures, to determine the anti-diabetic activity thereof.
A fraction having anti-diabetic activity may preferably be further fractionated such as by column chromatography using silica gel as an adsorption medium and a 9:1 chloroform:methanol solvent, and the resultant sub-fractions bioassayed for their anti-diabetic activity. A sub-fraction displaying anti-diabetic activity may, if desired, be further fractionated and purified, conveniently using a column chromatographic procedure with silica gel as the adsorption medium and a 9:1 ethylacetate:hexane solvent. The resultant purified fractions may again be evaluated by suitable bioassay procedures for their anti-diabetic activity.

O=C(CCc1ccc(O)c(O)c1)c1c(O)cc(O)c([C@@H]2O[C@H](CO)[C@@H](O)[C@H](O)[C@H]2O)c1O [aspalathin, 3′-C-fl-D-glucopyranosyl-2′,3,4,4′,6′-pentahydroxydihydrochalcone]
lowering the blood sugar and alleviating diabetic symptoms (diabetic rats; T1D and T2D rats): effective | effect in diabetic rats compared with the extract (diabetic rats; flavonoids extracted and fractionated from Aspalathus): results similar to those produced by the extract | anti-diabetic activity of purified fraction [1]: good anti-diabetic activity
